From the NIST ThermoML archive (doi:10.1016/j.fluid.2008.02.021)

Key:
[1] = for vapor or sublimation pressure: Liquid, Closed cell (Static) method; for Normal melting temperature: Crystal
[2] = excess molar enthalpy (molar enthalpy of mixing); xn = mol fraction of the nth substance listed; settings: Liquid, Flow calorimetry

OC1CCCCC1 [cyclohexanol]
[1]
Settings	Normal melting temperature [°C]	vapor or sublimation pressure [kPa]
323.15 K	–	0.7399
363.15 K	–	6.882
visual observation	24.1	–

O=C1CCCCC1 [cyclohexanone]
[1]
Settings	Normal melting temperature [°C]	vapor or sublimation pressure [kPa]
323.15 K	–	2.23
363.15 K	–	13.05
visual observation	-27.2	–

CCCCCCC(C)=O [2-octanone]
[1]
Settings	vapor or sublimation pressure [kPa]
323.15 K	0.8706
363.15 K	6.397

Settings	Normal melting temperature [°C]
[1]	-19.7

OC1CCCCC1 [cyclohexanol] + O=C1CCCCC1
[2]
Settings	excess molar enthalpy [kcal/mol]
363.15 K, 1651 kPa, x2 = 0.051	0.065
363.15 K, 1651 kPa, x2 = 0.102	0.124
363.15 K, 1651 kPa, x2 = 0.153	0.175
363.15 K, 1651 kPa, x2 = 0.204	0.22
363.15 K, 1651 kPa, x2 = 0.254	0.255
363.15 K, 1651 kPa, x2 = 0.305	0.285
363.15 K, 1651 kPa, x2 = 0.355	0.307
363.15 K, 1651 kPa, x2 = 0.406	0.321
363.15 K, 1651 kPa, x2 = 0.456	0.33
363.15 K, 1651 kPa, x2 = 0.506	0.334
363.15 K, 1651 kPa, x2 = 0.555	0.328
363.15 K, 1651 kPa, x2 = 0.605	0.316
363.15 K, 1651 kPa, x2 = 0.655	0.299
363.15 K, 1651 kPa, x2 = 0.705	0.275
363.15 K, 1651 kPa, x2 = 0.754	0.244
363.15 K, 1651 kPa, x2 = 0.803	0.208
363.15 K, 1651 kPa, x2 = 0.853	0.164
363.15 K, 1651 kPa, x2 = 0.902	0.115
363.15 K, 1651 kPa, x2 = 0.951	0.0595
413.15 K, 1582 kPa, x2 = 0.051	0.0388
413.15 K, 1582 kPa, x2 = 0.102	0.0744
413.15 K, 1582 kPa, x2 = 0.153	0.106
413.15 K, 1582 kPa, x2 = 0.203	0.134
413.15 K, 1582 kPa, x2 = 0.254	0.157
413.15 K, 1582 kPa, x2 = 0.304	0.175
413.15 K, 1582 kPa, x2 = 0.355	0.19
413.15 K, 1582 kPa, x2 = 0.405	0.199
413.15 K, 1582 kPa, x2 = 0.455	0.204
413.15 K, 1582 kPa, x2 = 0.505	0.206
413.15 K, 1582 kPa, x2 = 0.555	0.202
413.15 K, 1582 kPa, x2 = 0.605	0.195
413.15 K, 1582 kPa, x2 = 0.655	0.183
413.15 K, 1582 kPa, x2 = 0.704	0.168
413.15 K, 1582 kPa, x2 = 0.754	0.148
413.15 K, 1582 kPa, x2 = 0.803	0.126
413.15 K, 1582 kPa, x2 = 0.853	0.0985
413.15 K, 1582 kPa, x2 = 0.902	0.0681
413.15 K, 1582 kPa, x2 = 0.951	0.035

CCCCCCC(C)=O [2-octanone] + CCCCCCO
excess molar enthalpy [kcal/mol], [2], 1617 kPa
Settings	363.15 K	413.15 K
x2 = 0.062	0.0819	0.059
x2 = 0.122	0.152	0.112
x2 = 0.181	0.21	0.157
x2 = 0.238	0.257	0.194
x2 = 0.294	0.292	0.222
x2 = 0.349	0.319	0.244
x2 = 0.402	0.335	0.259
x2 = 0.455	0.344	0.268
x2 = 0.506	0.345	0.271
x2 = 0.556	–	0.269
x2 = 0.557	0.341	–
x2 = 0.605	0.327	0.26
x2 = 0.652	0.31	0.247
x2 = 0.699	0.287	0.229
x2 = 0.745	0.259	0.206
x2 = 0.79	0.227	0.181
x2 = 0.833	0.19	0.152
x2 = 0.876	0.148	0.12
x2 = 0.918	0.102	0.0838
x2 = 0.96	0.0525	0.0429

CCCCCCO [hexan-1-ol]
[1]
Settings	vapor or sublimation pressure [kPa]
323.15 K	0.7226
363.15 K	7.229

Settings	Normal melting temperature [°C]
[1]	-44
